How the values were obtained:
[1] = tested on: Escherichia coli isolates; experiment: disk diffusion test of Escherichia coli clinical isolates against norfloxacin, Karolinska hospital, zone diameter histograms 1988 and 1999; format: cell-based
Procedure: (§1) Different types of susceptibility tests can be used to test the antimicrobic susceptibility of a microorganism. One type of susceptibility test is the disk diffusion test. This is a standardized test, in which a plate containing a growth medium in agar gel is inoculated with a microbial isolate and one or more disks impregnated with fixed concentrations of antibiotics are placed thereon. After appropriate incubation, the diameter of zones of inhibition around the disks (if present) are registered in order to determine the sensitivity of the inoculated microorganism to the particular antimicrobial agent impregnated in each disk.
The microbial species to be tested can be any cultivable microorganism, such as a bacterial species or a fungal species. In order to obtain species-related and laboratory-related interpretive breakpoints, a histogram of for example clinical isolates can be used. The method is especially suitable for analyzing inhibition zone diameters from disk diffusion tests with clinical isolates from a bacterial species, which may contain resistant strains against an antibiotic. Thus, no outliers are excluded. The number of isolates or percent isolates are plotted on the y-axis and the growth inhibition zone diameter values from paper disks impregnated with the antibiotic are plotted on the x-axis. When the method of O'Brien et al. (J. Am. Med. Assoc. 210:84, 1969) is used, histograms are obtained with percent isolates on the y-axis and zone diameter values from 6 mm (paper disk diameter) to 60 mm on the x-axis. However, the inventive method is equally well adapted for a microdilution tests, the concentration data being minimal inhibitory concentrations. All data can be computerized.
It can be seen that the zone diameter values for these clinical isolates cluster around 29-30 mm with a distribution of ±8 mm.
The results from 1988 in FIG. 1 were compared with similar results eleven years later (FIG. 2). In this histogram a number of isolates now appear, which have inhibition zones all the way down to no zone, the size of the 6 mm disk. The comparison was accomplished by means of computer analysis according to the inventive method for calibrating antimicrobic susceptibility testings of microorganisms.
First, the slope downwards was tracked and the shift to decreasing values at the peak position identified by comparing sliding means (each based on two zone diameter figures). Then, the percentages of the isolates of the upper half of the population were determined and converted to probit values. A regression using the least squares method was then performed and the theoretical percentages for the whole population calculated.
In this calculation, it is assumed that 3 SD below the mean includes 99.86 percent of the normally susceptible strains in this group. A suitable limit for susceptibility interpretation and comparative analysis of antimicrobic resistance could then be defined as three times the standard deviation below the mean value.

E. coli [2] = experiment: disk diffusion test of E. coli against gentamicin, laboratory KS, SRGA methodology; format: cell-based, Escherichia coli; details: 10 μg gentamicin disk
Procedure: as §1
(§2) In this example histograms of zone diameter values from disk test results for E. coli tested against the antibiotic gentamicin were analyzed according to the principle of normalized resistance interpretation. One laboratory (KS) used the SRGA (Swedish Reference Group for Antibiotics) methodology and a disk content of 10 μg gentamicin, whereas the other laboratory on a different continent (AR, a clinical microbiology laboratory in South America) used the NCCLS (National Committee for Clinical Laboratory Standards) standardization and a 5 μg gentamicin disk.
(§3) The different methods used result in different positionings of the major, susceptible populations of strains (FIG. 5). […]

E. coli [3] = experiment: disk diffusion test of E. coli against gentamicin, laboratory AR (South America), NCCLS standardization; format: cell-based, Escherichia coli; details: 5 μg gentamicin disk
Procedure: as §1, §2, §3

**Q.** For `CCn1cc(C(=O)O)c(=O)c2cc(F)c(N3CCNCC3)cc21` [norfloxacin], which “mean value of inhibition zone diameters, customary statistical procedure” value ([1]; 1988, 3756 isolates, disk 10 μg, SD 3.22) is on record?
**A.** The value was 29.16 mm.

**Q.** And the “mean of normalized Gaussian distribution of theoretical normal population” value ([1]; 1988, 3756 isolates, disk 10 μg, SD 3.25)?
**A.** The value was 29.27 mm.

**Q.** And the “zone diameter values of clinical isolates cluster around” value ([1]; 1988 histogram, disk content 10 μg, distribution ±8 mm)?
**A.** The value was 29-30 mm.

**Q.** What about the “limit for resistance (zone breakpoint, 3 SD below normalized mean)” value ([1]; 1988 population) of the same compound?
**A.** Its value is 19 mm.

**Q.** And the “percent resistance of isolates” value ([1]; 1988 population, limit 19 mm)?
**A.** Its value is 0.56%.

**Q.** What about the “limit for resistance (zone breakpoint, 3 SD below normalized mean)” value ([1]; 1999 population) of the same compound?
**A.** The value was 20 mm.

**Q.** What about the “percent resistance of isolates” value ([1]; 1999 population, limit 20 mm) of the same compound?
**A.** Its value is 10.8%.

**Q.** What about the “mean of normalized Gaussian distribution of theoretical normal population” value ([1]; eleven years later (1999), 5944 isolates, SD 3.22) of the same compound?
**A.** Its value is 30.49 mm.

**Q.** What about the “mean value of inhibition zone diameters, customary statistical procedure” value ([1]; eleven years later (1999), all 5944 isolates, SD 7.39) of the same compound?
**A.** Its value is 28.24 mm.

**Q.** With gentamicin as the compound, how does the “R-limit for resistance (normalized zone breakpoint)” value (E. coli [2]) read?
**A.** The value was < 21 mm.

**Q.** What about the “R-limit for resistance (normalized zone breakpoint)” value (E. coli [3]) of the same compound?
**A.** Its value is < 17 mm.

Source: US7465559B2, “Method for calibrating antibiotic disk diffusion testing of microorganisms” (Bioscand AB, priority 2001, dated 2008)
